Assay results: patent US11505543B2, “4-oxo-3,4-dihydroquinazoline compounds as inhibitors of human immunodeficiency virus replication” (VIIV HEALTHCARE UK (NO.5) LIMITED, priority 2018, dated 2022)

Assays:
[1] = tested on: recombinant NL4-3 virus (nef section replaced with Renilla luciferase gene) in MT-2 cells; experiment: HIV cell culture assay (antiviral activity, luciferase readout); format: cell-based; conditions: Renilla, NL43, MT-2 cells infected for 4-5 days with recombinant NL4-3 Renilla luciferase virus, serial dilutions of compound
Procedure, shortened: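 EC50 was derived by median-effect curve fitting of luciferase activity. The signal comes from MT-2 cells infected for 4–5 days with 293T-produced NL4-3 reporter virus, nef partly replaced by Renilla luciferase, in the presence of serially diluted compound.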

[2] = Compound cytotoxicity, XTT-based colorimetric assay; format: cell-based; conditions: human, uninfected MT2 cells, day 4, XTT
Procedure, shortened: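 Run under the antiviral-assay protocol but without virus. Viability was read on day 4 and CC50 values were derived from the readout.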

Work on COc1ccc(-c2ccc3c(=O)n(-c4ccc(Cl)c5c(NS(C)(=O)=O)nn(C)c45)c([C@H](Cc4cc(F)cc(F)c4)NC(=O)Cn4nc(C(F)F)c5c4C(F)(F)[C@@H]4C[C@H]54)nc3c2)c(CO)c1 [Example 179, N-((S)-1-(3-(4-chloro-1-methyl-3-(methylsulfonamido)-1H-indazol-7-yl)-7-(2-(hydroxymethyl)-4-methoxyphenyl)-4-oxo-3,4-dihydroquinazolin-2-yl)-2-(3,5-difluorophenyl)ethyl)-2-((3bS,4aR)-3-(difluoromethyl)-5,5-difluoro-3b,4,4a,5-tetrahydro-1H-cyclopropa[3,4]cyclopenta[1,2-c]pyrazol-1-yl)acetamide] yielded an EC50 [1] of 0.235 nM and a CC50 at 4 day [2] greater than 500 nM.
In the case of Cn1nc(NS(C)(=O)=O)c2c(Cl)ccc(-n3c([C@H](Cc4cc(F)cc(F)c4)NC(=O)Cn4nc(C(F)F)c5c4C(F)(F)[C@@H]4C[C@H]54)nc4cc(-c5cc(F)ccc5CO)ccc4c3=O)c21 [Example 180, N-((S)-1-(3-(4-chloro-1-methyl-3-(methylsulfonamido)-1H-indazol-7-yl)-7-(5-fluoro-2-(hydroxymethyl)phenyl)-4-oxo-3,4-dihydroquinazolin-2-yl)-2-(3,5-difluorophenyl)ethyl)-2-((3bS,4aR)-3-(difluoromethyl)-5,5-difluoro-3b,4,4a,5-tetrahydro-1H-cyclopropa[3,4]cyclopenta[1,2-c]pyrazol-1-yl)acetamide], the EC50 [1] is reported as 0.2 nM and the CC50 at 4 day [2] is reported as greater than 500 nM.
In the case of CC(C)Oc1ccccc1-c1ccc2c(=O)n(-c3ccc(Cl)c4c(NS(C)(=O)=O)nn(C)c34)c([C@H](Cc3cc(F)cc(F)c3)NC(=O)Cn3nc(C(F)F)c4c3C(F)(F)[C@@H]3C[C@H]43)nc2c1 [Example 181, N-((S)-1-(3-(4-chloro-1-methyl-3-(methylsulfonamido)-1H-indazol-7-yl)-7-(2-isopropoxyphenyl)-4-oxo-3,4-dihydroquinazolin-2-yl)-2-(3,5-difluorophenyl)ethyl)-2-((3bS,4aR)-3-(difluoromethyl)-5,5-difluoro-3b,4,4a,5-tetrahydro-1H-cyclopropa[3,4]cyclopenta[1,2-c]pyrazol-1-yl)acetamide], the EC50 [1] is reported as 0.71 nM and the CC50 at 4 day [2] is reported as greater than 500 nM.
CS(=O)(=O)Nc1nn(CC(F)(F)F)c2c(-n3c([C@H](Cc4cc(F)cc(F)c4)NC(=O)Cn4nc(C(F)(F)F)c5c4C(F)(F)[C@@H]4C[C@H]54)nc4cc(-c5ccccc5F)ccc4c3=O)ccc(Cl)c12 [Example 182, N-((S)-1-(3-(4-chloro-3-(methylsulfonamido)-1-(2,2,2-trifluoroethyl)-1H-indazol-7-yl)-7-(2-fluorophenyl)-4-oxo-3,4-dihydroquinazolin-2-yl)-2-(3,5-difluorophenyl)ethyl)-2-((3bS,4aR)-5,5-difluoro-3-(trifluoromethyl)-3b,4,4a,5-tetrahydro-1H-cyclopropa[3,4]cyclopenta[1,2-c]pyrazol-1-yl)acetamide] gave an EC50 [1] of 0.87 nM and a CC50 at 4 day [2] greater than 500 nM.
Compound CS(=O)(=O)Nc1nn(CC(F)F)c2c(-n3c([C@H](Cc4cc(F)cc(F)c4)NC(=O)Cn4nc(C(F)F)c5c4C(F)(F)[C@@H]4C[C@H]54)nc4cc(-c5ccccc5F)ccc4c3=O)ccc(Cl)c12 [Example 183, N-((S)-1-(3-(4-chloro-1-(2,2-difluoroethyl)-3-(methylsulfonamido)-1H-indazol-7-yl)-7-(2-fluorophenyl)-4-oxo-3,4-dihydroquinazolin-2-yl)-2-(3,5-difluorophenyl)ethyl)-2-((3bS,4aR)-3-(difluoromethyl)-5,5-difluoro-3b,4,4a,5-tetrahydro-1H-cyclopropa[3,4]cyclopenta[1,2-c]pyrazol-1-yl)acetamide] has an EC50 [1] of 0.39 nM and a CC50 at 4 day [2] greater than 500 nM.
For Cn1nc(NS(C)(=O)=O)c2c(Cl)ccc(-n3c([C@H](Cc4cc(F)cc(F)c4)NC(=O)Cn4nc(C(F)F)c5c4C(F)(F)[C@@H]4C[C@H]54)nc4cc(-c5ccc(Cl)cc5F)ccc4c3=O)c21 [Example 184, N-((S)-1-(3-(4-chloro-1-methyl-3-(methylsulfonamido)-1H-indazol-7-yl)-7-(4-chloro-2-fluorophenyl)-4-oxo-3,4-dihydroquinazolin-2-yl)-2-(3,5-difluorophenyl)ethyl)-2-((3bS,4aR)-3-(difluoromethyl)-5,5-difluoro-3b,4,4a,5-tetrahydro-1H-cyclopropa[3,4]cyclopenta[1,2-c]pyrazol-1-yl)acetamide], the EC50 [1] was 1.8 nM and the CC50 at 4 day [2] was greater than 500 nM.
Work on Cn1nc(NS(C)(=O)=O)c2c(Cl)ccc(-n3c([C@H](Cc4cc(F)cc(F)c4)NC(=O)Cn4nc(C(F)F)c5c4C(F)(F)[C@@H]4C[C@H]54)nc4cc(-c5c(F)cccc5F)ccc4c3=O)c21 [Example 185, N-((S)-1-(3-(4-chloro-1-methyl-3-(methylsulfonamido)-1H-indazol-7-yl)-7-(2,6-difluorophenyl)-4-oxo-3,4-dihydroquinazolin-2-yl)-2-(3,5-difluorophenyl)ethyl)-2-((3bS,4aR)-3-(difluoromethyl)-5,5-difluoro-3b,4,4a,5-tetrahydro-1H-cyclopropa[3,4]cyclopenta[1,2-c]pyrazol-1-yl)acetamide] yielded an EC50 [1] of 0.62 nM and a CC50 at 4 day [2] greater than 1000 nM.
With COc1ccccc1-c1ccc2c(=O)n(-c3ccc(Cl)c4c(NS(C)(=O)=O)nn(C)c34)c([C@H](Cc3cc(F)cc(F)c3)NC(=O)Cn3nc(C(F)F)c4c3C(F)(F)[C@@H]3C[C@H]43)nc2c1 [Example 186, N-((S)-1-(3-(4-chloro-1-methyl-3-(methylsulfonamido)-1H-indazol-7-yl)-7-(2-methoxyphenyl)-4-oxo-3,4-dihydroquinazolin-2-yl)-2-(3,5-difluorophenyl)ethyl)-2-((3bS,4aR)-3-(difluoromethyl)-5,5-difluoro-3b,4,4a,5-tetrahydro-1H-cyclopropa[3,4]cyclopenta[1,2-c]pyrazol-1-yl)acetamide] the EC50 [1] was 2.4 nM and the CC50 at 4 day [2] was greater than 1000 nM.
Cn1nc(NS(C)(=O)=O)c2c(Cl)ccc(-n3c([C@H](Cc4cc(F)cc(F)c4)NC(=O)Cn4nc(C(F)F)c5c4C(F)(F)[C@@H]4C[C@H]54)nc4cc(-c5ccc(F)cc5F)ccc4c3=O)c21 [Example 187, N-((S)-1-(3-(4-chloro-1-methyl-3-(methylsulfonamido)-1H-indazol-7-yl)-7-(2,4-difluorophenyl)-4-oxo-3,4-dihydroquinazolin-2-yl)-2-(3,5-difluorophenyl)ethyl)-2-((3bS,4aR)-3-(difluoromethyl)-5,5-difluoro-3b,4,4a,5-tetrahydro-1H-cyclopropa[3,4]cyclopenta[1,2-c]pyrazol-1-yl)acetamide] gave an EC50 [1] of 0.28 nM and a CC50 at 4 day [2] greater than 1000 nM.
In the case of Cc1cc(F)ccc1-c1ccc2c(=O)n(-c3ccc(Cl)c4c(NS(C)(=O)=O)nn(C)c34)c([C@H](Cc3cc(F)cc(F)c3)NC(=O)Cn3nc(C(F)F)c4c3C(F)(F)[C@@H]3C[C@H]43)nc2c1 [Example 188, N-((S)-1-(3-(4-chloro-1-methyl-3-(methylsulfonamido)-1H-indazol-7-yl)-7-(4-fluoro-2-methylphenyl)-4-oxo-3,4-dihydroquinazolin-2-yl)-2-(3,5-difluorophenyl)ethyl)-2-((3bS,4aR)-3-(difluoromethyl)-5,5-difluoro-3b,4,4a,5-tetrahydro-1H-cyclopropa[3,4]cyclopenta[1,2-c]pyrazol-1-yl)acetamide], the EC50 [1] is reported as 1.7 nM and the CC50 at 4 day [2] is reported as greater than 1000 nM.
With O=C(Cn1nc(C(F)F)cc1C(F)F)N[C@@H](Cc1cc(F)cc(F)c1)c1nc2cc(-c3ncccn3)ccc2c(=O)n1-c1ccc(Cl)c2c(NS(=O)(=O)C3CC3)nn(CC(F)F)c12 [Example 189, (S)-2-(3,5-bis(difluoromethyl)-1H-pyrazol-1-yl)-N-(1-(3-(4-chloro-3-(cyclopropanesulfonamido)-1-(2,2-difluoroethyl)-1H-indazol-7-yl)-4-oxo-7-(pyrimidin-2-yl)-3,4-dihydroquinazolin-2-yl)-2-(3,5-difluorophenyl)ethyl)acetamide] the EC50 [1] was 1.3 nM and the CC50 at 4 day [2] was greater than 500 nM.
Work on O=C(Cn1nc(C(F)F)cc1C(F)F)N[C@@H](Cc1cc(F)cc(F)c1)c1nc2cc(-c3ccccn3)ccc2c(=O)n1-c1ccc(Cl)c2c(NS(=O)(=O)C3CC3)nn(CC(F)F)c12 [Example 190, (S)-2-(3,5-bis(difluoromethyl)-1H-pyrazol-1-yl)-N-(1-(3-(4-chloro-3-(cyclopropanesulfonamido)-1-(2,2-difluoroethyl)-1H-indazol-7-yl)-4-oxo-7-(pyridin-2-yl)-3,4-dihydroquinazolin-2-yl)-2-(3,5-difluorophenyl)ethyl)acetamide] yielded an EC50 [1] of 2.1 nM and a CC50 at 4 day [2] greater than 500 nM.
Compound Cc1nccnc1-c1ccc2c(=O)n(-c3ccc(Cl)c4c(NS(=O)(=O)C5CC5)nn(CC(F)F)c34)c([C@H](Cc3cc(F)cc(F)c3)NC(=O)Cn3nc(C(F)F)cc3C(F)F)nc2c1 [Example 191, (S)-2-(3,5-bis(difluoromethyl)-1H-pyrazol-1-yl)-N-(1-(3-(4-chloro-3-(cyclopropanesulfonamido)-1-(2,2-difluoroethyl)-1H-indazol-7-yl)-7-(3-methylpyrazin-2-yl)-4-oxo-3,4-dihydroquinazolin-2-yl)-2-(3,5-difluorophenyl)ethyl)acetamide] has an EC50 [1] of 1.5 nM and a CC50 at 4 day [2] greater than 500 nM.
Cn1nc(NS(C)(=O)=O)c2c(Cl)ccc(-n3c([C@H](Cc4cc(F)cc(F)c4)NC(=O)Cn4nc(C(F)F)c5c4C(F)(F)[C@@H]4C[C@H]54)nc4cc(-c5ccc(C(C)(C)C)cc5)ccc4c3=O)c21 [Example 192, N-((S)-1-(7-(4-(tert-butyl)phenyl)-3-(4-chloro-1-methyl-3-(methylsulfonamido)-1H-indazol-7-yl)-4-oxo-3,4-dihydroquinazolin-2-yl)-2-(3,5-difluorophenyl)ethyl)-2-((3bS,4aR)-3-(difluoromethyl)-5,5-difluoro-3b,4,4a,5-tetrahydro-1H-cyclopropa[3,4]cyclopenta[1,2-c]pyrazol-1-yl)acetamide] showed an EC50 [1] of 5.1 nM and a CC50 at 4 day [2] greater than 1000 nM.
